By IC50 is commonly meant the concentration that gives 50% inhibition.

The target of the assay is T1, human PAD4 (Homo sapiens, UniProt Q9UM07).
T1 construct: human PAD4 (NM_012387), A2-P663, was PCR amplified; His-SUMO (N, cleaved yes); made in house; host or cells: E. coli BL21(DE3)
Nature of the assay: In vitro PAD4 BAEE biochemical assay. To be noted: BAEE substrate 3 mM, 5 nM PAD4, 2 mM calcium chloride; geometric mean of multiple experiments. Put shortly: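 PAD4 5 nM, CaCl2 2 mM, BAEE 3 mM final; 50 mM MOPS pH 7.6, 50 mM NaCl, 0.05% Tween-20, 2 mM DTT. Cpd + enzyme 30 min 25 °C; substrate 2 h 25 °C; EDTA stop; OPA detection 1 h. IC50 4-parameter fit.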

T1 sequence (Q9UM07 2-663): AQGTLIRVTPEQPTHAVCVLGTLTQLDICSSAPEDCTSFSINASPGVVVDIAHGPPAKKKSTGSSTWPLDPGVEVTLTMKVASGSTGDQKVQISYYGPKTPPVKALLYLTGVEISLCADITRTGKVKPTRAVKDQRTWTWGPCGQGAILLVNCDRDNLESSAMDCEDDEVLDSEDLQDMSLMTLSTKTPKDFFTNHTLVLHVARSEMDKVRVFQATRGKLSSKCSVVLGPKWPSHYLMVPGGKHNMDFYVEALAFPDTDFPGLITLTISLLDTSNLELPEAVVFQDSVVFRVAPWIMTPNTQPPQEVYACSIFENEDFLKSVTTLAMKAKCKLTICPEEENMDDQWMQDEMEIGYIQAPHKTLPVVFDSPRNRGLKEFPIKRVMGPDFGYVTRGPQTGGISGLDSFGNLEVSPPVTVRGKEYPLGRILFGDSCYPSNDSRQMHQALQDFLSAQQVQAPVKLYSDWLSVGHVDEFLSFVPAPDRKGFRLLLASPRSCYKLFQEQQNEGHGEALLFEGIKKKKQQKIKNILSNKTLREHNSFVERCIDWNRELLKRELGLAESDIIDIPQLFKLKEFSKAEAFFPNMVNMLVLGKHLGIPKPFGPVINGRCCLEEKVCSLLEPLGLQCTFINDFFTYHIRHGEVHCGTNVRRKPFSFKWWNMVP

Turning to `COc1cc(C(=O)N2CC[C@@H]3CCN[C@@H]3C2)cc2nc(-c3cc4ccc5nc4n3CCCCCCC(C)(C)C(=O)N[C@@H]5C)n(C)c12` [Example 81, (11~{R})-17-[5-[(3~{a}~{S},7~{a}~{S})-1,2,3,3~{a},4,5,7,7~{a}-octahydropyrrolo[2,3-c]pyridine-6-carbonyl]-7-methoxy-1-methyl-benzimidazol-2-yl]-8,8,11-trimethyl-1,10,19-triazatricyclo[10.5.2.0^{15,18}]nonadeca-12(19),13,15(18),16-tetraen-9-one], the IC50 was found to be 505 nM.
As for `CO[C@@H]1CCN(C(=O)c2cc(F)c3c(c2)nc(-c2cc4ccc5nc4n2CC(F)(F)CCC[C@@H]2C[C@H]2C(=O)N[C@@H]5C)n3[C@H]2C[C@@H]2F)C[C@@H]1N` [Example 834, (2~{R},5~{R},7~{R})-14-[5-[(3~{S),4~{R})-3-amino-4-methoxy-piperidine-1-carbonyl]-7-fluoro-1-[(1~{S},2~{S})-2-fluorocyclopropyl]benzimidazol-2-yl]-11,11-difluoro-2-methyl-3,13,19-triazatetracyclo [11.5.2.0^{5,7}.0^{16,20}] icosa-1(19),14,16(20), 17-tetraen-4-one], the IC50 turned out to be 126 nM.
On to `COc1cc(C(=O)N2CCC[C@@H](N)C2)cc2nc(-c3cc4ccc5nc4n3CCCCCCCC(=O)N[C@@H]5C)n(C3CC3)c12` [Example 229, (11~{R})-17-[5-[(3~{R})-3-aminopiperidine-1-carbonyl]-1-cyclopropyl-7-methoxy-benzimidazol-2-yl]-11-methyl-1,10,19-triazatricyclo[10.5.2.0^{15,18}]nonadeca-12(19),13,15(18),16-tetraen-9-one], for which the IC50 came out at 72 nM.
As for `COc1cc(C(=O)N2CC[C@@H](O)[C@@H](N)C2)cc2nc(-c3cc4ccc5nc4n3CC(F)(F)CCC[C@@H]3C[C@H]3C(=O)N[C@@H]5C)n(C)c12` [Example 680, (2~{R},5~{R},7~{R})-14-[5-[(3~{S},4~{R})-3-amino-4-hydroxy-piperidine-1-carbonyl]-7-methoxy-1-methyl-benzimidazol-2-yl]-11,11-difluoro-2-methyl-3,13,19-triazatetracyclo[11.5.2.0^ {5,7}.0^{16,20}]icosa-1(19), 14,16(20),17-tetraen-4-one], the IC50 was determined as 34 nM.
For `C[C@H]1NC(=O)[C@@H]2C[C@H]2CCCCCn2c(-c3nc4cc(C(=O)N[C@H]5CNCC[C@@H]5F)c(F)cc4n3C3CC3)cc3ccc1nc32` [Example 182, 1-cyclopropyl-6-fluoro-~{N}-[(3~{S},4~{S})-4-fluoro-3-piperidyl]-2-[(2~{R},5~{R},7~{R})-2-methyl-4-oxo-3,13,19-triazatetracyclo[11.5.2.0^{5,7}.0^{16,20}]icosa-1(19),14,16(20),17-tetraen-14-yl]benzimidazole-5-carboxamide], the IC50 turned out to be 31 nM.
Consider `C[C@H]1NC(=O)[C@@H]2C[C@H]2CCCCCn2c(-c3nc4cc(C(=O)N5[C@H]6CC[C@@H]5[C@H](N)C6)cnc4n3C)cc3ccc1nc32` [Example 563, (2~{R},5~{R},7~{R})-14-[6-[(1~{R},2~{R},4~ {S})-2-amino-7-azabicyclo [2.2.1]heptane-7-carbonyl]-3-methyl-imidazo[4,5-b]pyridin-2-yl]-2-methyl-3,13,19-triazatetracyclo [11.5.2.0^{5,7}.0^{16,20}] icosa-1(19),14,16(20), 17-tetraen-4-one], for which the IC50 was determined as 26 nM.
Turning to `COc1cc(C(=O)N2CC[C@@H](OC)[C@@H](N)C2)cc2nc(-c3cc4ccc5nc4n3CCCCCc3ccnc(F)c3C(=O)N[C@@H]5C)n(C)c12` [Example 825, (2~{R})-17-[5-[(3~{S},4~ {R})-3-amino-4-methoxy-piperidine-1-carbonyl]-7-methoxy-1-methyl-benzimidazol-2-yl]-6-fluoro-2-methyl-3,7,16,22-tetrazatetracyclo[14.5.2.0^ {5,10}.0^{19,23}]tricosa-1(21),5,7,9,17,19,22-heptaen-4-one], the IC50 stood at 38 nM.
As for `COc1cc(C(=O)N2CCC[C@@H](N)C2)cc2nc(-c3cc4ccc5nc4n3CCCCCCC3(CC3)C(=O)N[C@@H]5C)n(C)c12` [Example 233, (11~{R})-17-[5-[(3~{R})-3-aminopiperidine-1-carbonyl]-7-methoxy-1-methyl-benzimidazol-2-yl]-11-methyl-spiro[1,10,19-triazatricyclo[10.5.2.0^{15,18}]nonadeca-12(19),13,15(18),16-tetraene-8,1′-cyclopropane]-9-one], the concentration for half-maximal inhibition (IC50) amounted to 82 nM.
As for `COc1cc(C(=O)N2C[C@H]3CC[C@@H]2[C@@H]3N)cc2nc(-c3cc4ccc5nc4n3CCCCCC[C@@](C)(C(F)(F)F)C(=O)N[C@@H]5C)n(C)c12` [Example 722, (8~{R},11~{R})-17-[5-[(1~{R},4~{R},7~{R})-7-amino-2-azabicyclo [2.2.1]heptane-2-carbonyl]-7-methoxy-1-methyl-benzimidazol-2-yl]-8,11-dimethyl-8-(trifluoromethyl)-1,10,19-triazatricyclo [10.5.2.0^{15,18}]nonadeca-12(19),13,15(18),16-tetraen-9-one], the figure is 174 nM.
With `CCn1c(-c2cc3ccc4nc3n2CCCCCCC(C)(C)C(=O)N[C@@H]4C)nc2cc(C(=O)N[C@H]3CNCC[C@@H]3F)c(F)cc21` [Example 423, 1-ethyl-6-fluoro-~{N}-[(3~{S},4~{S})-4-fluoro-3-piperidyl]-2-[(11~{R})-8,8,11-trimethyl-9-oxo-1,10,19-triazatricyclo[10.5.2.0^{15,18}]nonadeca-12(19),13,15(18),16-tetraen-17-yl]benzimidazole-5-carboxamide], the IC50 amounted to 64 nM.
In the case of `C[C@H]1NC(=O)C(C)(C)CCCCCCn2c(-c3nc4cc(C(=O)N[C@H]5CNCC[C@@H]5F)c(C#N)cc4n3C)cc3ccc1nc32` [Example 596, 6-cyano-~{N}-[(3~{S},4~ {S})-4-fluoro-3-piperidyl]-1-methyl-2-[(11~{R})-8,8,11-trimethyl-9-oxo-1,10,19-triazatricyclo[10.5.2.0^ {15,18}]nonadeca-12,14,16,18-tetraen-17-yl] benzimidazole-5-carboxamide], the concentration for half-maximal inhibition (IC50) amounted to 3580 nM.
Consider `Cc1cc2c(cc1C(=O)N[C@H]1CNCC[C@@H]1F)nc(-c1cc3ccc4nc3n1CCCCCCC(C)(C)C(=O)N[C@@H]4C)n2C` [Example 537, ~{N}-[(3~{S},4~ {S})-4-fluoro-3-piperidyl]-1,6-dimethyl-2-[(11~{R})-8,8,11-trimethyl-9-oxo-1,10,19-triazatricyclo [10.5.2.0^{15,18}]nonadeca-12(19),13,15(18), 16-tetraen-17-yl]benzimidazole-5-carboxamide], for which the half-inhibitory concentration (IC50) worked out at 87 nM.
As to `C[C@H]1NC(=O)c2ccc(Cl)nc2CC[C@@H]2C[C@H]2Cn2c(-c3nc4cc(C(=O)N5C[C@H](N)[C@@H]6CC[C@H]5C6)cc(F)c4n3C3CC3)cc3ccc1nc32` [Example 879, (3~{R},5~{R},16~{R})-22-[5-[(1~{S},4~{R}, 5~{R})-4-amino-2-azabicyclo[3.2.1]octane-2-carbonyl]-1-cyclopropyl-7-fluoro-benzimidazol-2-yl]-10-chloro-16-methyl-1,9,15,24-tetrazapentacyclo[15.5.2.0^ {3,5}.0^{8,13}.0^{20,23}] tetracosa-8(13),9,11,17(24), 18,20(23),21-heptaen-14-one], the IC50 is 34 nM.
For the compound `COc1cc(C(=O)N2CCC[C@@H](N)C2)cc2nc(-c3cc4ccc5nc4n3CCCCCCCCOC5C)n(C)c12` (stereo partly drawn) [Example 291, [(3˜{R})-3-amino-1-piperidyl]-[7-methoxy-1-methyl-2-(11-methyl-10-oxa-1,19-diazatricyclo[10.5.2.0^{15,18}]nonadeca-12(19),13,15(18),16-tetraen-17-yl)benzimidazol-5-yl]methanone], the IC50 was determined as 335 nM.
Turning to `CC(C)OCCn1c(-c2cc3ccc4nc3n2CCCCCCC(C)(C)C(=O)N[C@@H]4C)nc2cc(C(=O)N[C@H]3CNCC[C@@H]3F)c(F)cc21` [Example 424, 6-fluoro-~{N}-[(3~{S},4~{S})-4-fluoro-3-piperidyl]-1-(2-isopropoxyethyl)-2-[(11~{R})-8,8,11-trimethyl-9-oxo-1,10,19-triazatricyclo[10.5.2.0^{15,18}]nonadeca-12(19),13,15(18),16-tetraen-17-yl]benzimidazole-5-carboxamide], the IC50 turned out to be 111 nM.
For the compound `C[C@H]1NC(=O)[C@@H]2C[C@@]2(F)/C=C/CCCn2c(-c3nc4cc(C(=O)N5C[C@H](N)[C@@H]6CC[C@H]5C6)cc(F)c4n3C3CC3)cc3ccc1nc32` [Example 919, (2~{R},5~{S},7~{R},8~{E})-14-[5-[(1~{S},4~{R},5~{R})-4-amino-2-azabicyclo[3.2.1]octane-2-carbonyl]-1-cyclopropyl-7-fluoro-benzimidazol-2-yl]-7-fluoro-2-methyl-3,13,19-triazatetracyclo[11.5.2.0^ {5,7}.0^{16,20}]icosa-1(19),8,14,16(20),17-pentaen-4-one], the IC50 was 20 nM.
For `COc1cc(C(=O)N2CCC[C@@H](N)C2)cc2nc(-c3cc4ccc5nc4n3CCCCCCC3(CCC3)C(=O)N[C@@H]5C)n(C)c12` [Example 263, (11~{R})-17-[5-[(3~{R})-3-aminopiperidine-1-carbonyl]-7-methoxy-1-methyl-benzimidazol-2-yl]-11-methyl-spiro[1,10,19-triazatricyclo[10.5.2.0^{15,18}]nonadeca-12(19),13,15(18),16-tetraene-8,1′-cyclobutane]-9-one], the IC50 was determined as 69 nM.
For the compound `COc1cc(C(=O)N2CC[C@@H](OC)[C@@H](N)C2)cc2nc(-c3cc4ccc5nc4n3CCCCCc3ccccc3C(=O)N[C@@H]5C)n(C)c12` [Example 43, (2~{R})-17-[5-[(3~{S},4~{R})-3-amino-4-methoxy-piperidine-1-carbonyl]-7-methoxy-1-methyl-benzimidazol-2-yl]-2-methyl-3,16,22-triazatetracyclo[14.5.2.0^{5,10}.0^{19,23}] tricosa-1(22),5,7,9,17,19(23),20-heptaen-4-one], the half-maximal inhibitory concentration (IC50) worked out at 118 nM.

The record behind these values is patent US11976083B2, “Inhibitors of peptidylarginine deiminases” (Gilead Sciences, Inc., priority 2020, dated 2024).
